Laboratory results published in patent US20190322643A1 (Georgia State University Research Foundation, Inc., priority 2016, published 2019).

How the values were obtained:
A549 = assay: Cytotoxicity / anti-proliferation assay (CCK-8), A549; format: cell-based; conditions: Homo sapiens, 72 h, CCK-8 kit
Experimental: (§1) Then the cells were exposed to the different inhibitors with various concentrations for 72 h. […] EC50s were calculated using GraphPad Prizm statistical package with sigmoidal variable slope dose response curve fit.
(§2) Cell anti-proliferation assays were performed to determine the toxicity of these inhibitors. […] These compounds were further evaluated against the control cell line HEK293 to test their toxicity with a non-cancerous cell line.

[1] = biological target: T1, Mouse histone methyltransferase G9a (969-1263) (Mus musculus, UniProt Q9Z148); assay: MALDI-TOF methylation study of G9a inhibition; format: biochemical; conditions: inhibitors at 5 μM concentration for 30 min
T1 construct: The 6His-sumo mG9a (969-1263) protein was purified using the following procedure; 6His-sumo (cleaved yes); made in house; host or cells: Escherichia coli BL21 (DE3)
T1 sequence (Q9Z148 969-1263): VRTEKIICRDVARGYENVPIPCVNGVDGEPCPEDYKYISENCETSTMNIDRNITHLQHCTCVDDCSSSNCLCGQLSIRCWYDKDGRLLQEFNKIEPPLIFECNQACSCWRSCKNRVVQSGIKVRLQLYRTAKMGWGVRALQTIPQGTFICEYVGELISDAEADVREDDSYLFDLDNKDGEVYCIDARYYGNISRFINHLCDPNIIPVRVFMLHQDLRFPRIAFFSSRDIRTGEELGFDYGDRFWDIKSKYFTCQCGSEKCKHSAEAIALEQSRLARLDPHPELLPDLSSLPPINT

HCT-8 = assay: Cytotoxicity / anti-proliferation assay (CCK-8), HCT-8; format: cell-based; conditions: Homo sapiens, 72 h, CCK-8 kit
Experimental: as §1, §2

MCF-7 = assay: Cytotoxicity / anti-proliferation assay (CCK-8), MCF-7; format: cell-based; conditions: Homo sapiens, MCF7; 72 h, CCK-8 kit
Experimental: as §1, §2

HDAC [2] = assay: Cell based homogenous HDAC assay, A549; conditions: read-out: IC50-HDAC A549; A549 cells, mean ± SD of triplicate
Experimental: (§3) After 24 h, 9 μl inhibitors with different concentration were added to the HeLa cells and incubation was continued for 3 h under cell culture conditions. After this treatment period, 10 μl of a 2 mM stock solution of the substrate Boc-K(Ac)-AMC was added into the 96 well plates with Hela cells and inhibitors. […] A549 and K562 cell lines used the same method, respectively. IC50s were calculated using GraphPad Prizm statistical package with sigmoidal variable slope dose response curve fit.
(§4) Boc-K(Ac)-AMC was used as a cell-permeable HDAC substrate, as after deacetylation it is cleaved by trypsin to release the florescent 7-amino-4-methylcoumarin (AMC).

HDAC [3] = assay: Cell based homogenous HDAC assay, K562; conditions: read-out: IC50-HDAC K562; K562 cells, mean ± SD of triplicate
Experimental: as §3, §4

HDAC [4] = assay: Cell based homogenous HDAC assay, Hela; conditions: read-out: IC50-HDAC Hela; Hela cells, mean ± SD of triplicate
Experimental: as §3, §4

inhibition at 5 µM [1]: 17.9 ± 5.51% | IC50 (HDAC [2]): > 100 µM | IC50 (HDAC [3]): > 100 µM | IC50 (HDAC [4]): > 100 µM
SMILES: CN1CCCN(c2nc(NC3CCN(Cc4ccccc4)CC3)c3ccc(OCCCCCCC(=O)NO)cc3n2)CC1 [Compound 30]
EC50 (A549): > 100 µM | EC50 (HCT-8): > 100 µM | EC50 (MCF-7): > 100 µM
